Results published in ChEMBL document CHEMBL5120831, “Pep5-based antitumor peptides containing multifunctional fragments with enhanced activity and synergistic effect” (Eur J Med Chem, 2022).
Active and inactive are the calls of the source. No cut-off for these calls is given here. Bridge positions count the residues as written; N and C are the ends. Peptide text beside a SMILES is read from it. I, II: the chains in the order shown.

Columns and labels:
HepG2 [1] = assay: Cytotoxicity against human HepG2 cells assessed as reduction in cell viability measured after 24 hrs by CCK-8 assay; format: functional, cell-based; conditions: for IC50: HepG2, 24 h
[2] = Cytotoxicity against human L02 cells assessed as reduction in cell viability measured after 24 hrs by CCK-8 assay; format: toxicity, cell-based
A549 [3] = assay: Cytotoxicity against human A549 cells assessed as reduction in cell viability measured after 24 hrs by CCK-8 assay; format: functional, cell-based; conditions: for IC50: A549, 24 h
[4] = Cytotoxicity against human BEAS-2B cells assessed as reduction in cell viability measured after 24 hrs by CCK-8 assay; format: toxicity, cell-based
HepG2 [5] = assay: Induction of morphological changes in human HepG2 cells assessed as decrease in cell number at 15 uM measured after 24 hrs by high-throughput microscopy; format: functional, cell-based
HepG2 [6] = assay: Induction of morphological changes in human HepG2 cells assessed as appearance of abnormal cell morphology at 15 uM measured after 24 hrs by high-throughput microscopy; format: functional, cell-based
HepG2 [7] = assay: Induction of apoptosis in human HepG2 cells assessed as increase in late apoptotic cells at 15 uM measured after 24 hrs by Annexin V-FITC/propidium iodide staining based flow cytometry; format: functional, cell-based
HepG2 [8] = assay: Induction of apoptosis in human HepG2 cells assessed as increase in necrotic cells at 15 uM measured after 24 hrs by Annexin V-FITC/propidium iodide staining based flow cytometry; format: functional, cell-based
A549 [9] = assay: Induction of apoptosis in human A549 cells assessed as increase in late apoptotic cells at 15 uM measured after 24 hrs by Annexin V-FITC/propidium iodide staining based flow cytometry; format: functional, cell-based
A549 [10] = assay: Induction of apoptosis in human A549 cells assessed as increase in necrotic cells at 15 uM measured after 24 hrs by Annexin V-FITC/propidium iodide staining based flow cytometry; format: functional, cell-based
L02 = assay: Induction of apoptosis in human L02 cells assessed as reduction in viable cells at 15 uM measured after 24 hrs by Annexin V-FITC/propidium iodide staining based flow cytometry; format: toxicity, cell-based; conditions: l02, 24 h
BEAS-2B = assay: Induction of apoptosis in human BEAS-2B cells assessed as reduction in viable cells at 15 uM measured after 24 hrs by Annexin V-FITC/propidium iodide staining based flow cytometry; format: toxicity, cell-based
A549 [11] = assay: Induction of cell membrane disruption in human A549 cells assessed as increase in LDH release at 15 uM measured after 1 hr by LDH releasing reagent based assay
HepG2 [12] = assay: Induction of cell membrane disruption in human HepG2 cells assessed as increase in LDH release at 15 uM measured after 1 hr by LDH releasing reagent based assay
HepG2 [13] = assay: Antitumor activity against human HepG2 cells xenografted in sc dosed BALB/c nude mouse assessed as tumor growth inhibition administered at 1 day interval for 9 days; format: functional, organism-based; conditions: dose 25-50 µM, time 9.0 day, DDE = dose-dependent effect
HepG2 [14] = assay: Antitumor activity against human HepG2 cells xenografted in BALB/c nude mouse assessed as reduction in tumor volume at 25 to 50 uM, sc administered at 1 day interval for 9 days; format: functional, organism-based; conditions: dose 25-50 µM, time 9.0 day
[15] = Toxicity in HepG2 cell xenografted BALB/c nude mouse assessed as change in body weight at 25 to 50 uM, sc administered at 1 day interval for 9 days; format: organism-based; conditions: in vivo, 216 h, dose 25-50 µM, time 9 day
HepG2 [16] = assay: Antitumor activity against human HepG2 cells xenografted in BALB/c nude mouse assessed as appearance of fuzzy boundary region at 25 to 50 uM, sc administered at 1 day interval for 9 days and measured on day 11 by H and E staining based histological analysis; format: functional, organism-based; conditions: dose 25-50 µM, time 11.0 day
HepG2 [17] = assay: Antitumor activity against human HepG2 cells xenografted in BALB/c nude mouse assessed as missing nuclei at 25 to 50 uM, sc administered at 1 day interval for 9 days and measured on day 11 by H and E staining based histological analysis; format: functional, organism-based; conditions: dose 25-50 µM, time 11.0 day
HepG2 [18] = assay: Antitumor activity against human HepG2 cells xenografted in BALB/c nude mouse assessed as induction of apoptosis at 25 to 50 uM, sc administered at 1 day interval for 9 days and measured on day 11 by TUNEL staining based assay; format: functional, organism-based; conditions: dose 25-50 µM, time 11.0 day
HepG2 [19] = assay: Induction of apoptosis in human HepG2 cells assessed as reduction in viable cells at 15 uM measured after 24 hrs by Annexin V-FITC/propidium iodide staining based flow cytometry; format: functional, cell-based
A549 [20] = assay: Induction of apoptosis in human A549 cells assessed as reduction in viable cells at 15 uM measured after 24 hrs by Annexin V-FITC/propidium iodide staining based flow cytometry; format: functional, cell-based

Structure (SMILES)	IC50 (HepG2 [1]) [µM]	IC50 at 24 h [2] [µM]	IC50 (A549 [3]) [µM]	IC50 at 24 h [4] [µM]	Activity (L02)	Activity (BEAS-2B)	Activity (A549 [11])	Activity (HepG2 [12])	further results
CC(C)C[C@H](NC(=O)[C@H](CCCCN)NC(=O)CNC(=O)[C@H](CC(C)C)NC(=O)[C@@H](NC(=O)[C@@H](NC(=O)[C@H](CC(C)C)NC(=O)[C@H](CCC(=O)O)NC(=O)[C@@H](N)Cc1c[nH]c2ccccc12)C(C)C)C(C)C)C(=O)N[C@@H](Cc1ccc(O)cc1)C(=O)NCC(=O)N[C@@H](CCCNC(=N)N)C(=O)N[C@@H](CCCCN)C(=O)N[C@@H](CCCCN)C(=O)N[C@@H](CCCNC(=N)N)C(=O)N[C@@H](CCCNC(=N)N)C(=O)N[C@@H](CCC(N)=O)C(=O)N[C@@H](CCCNC(=N)N)C(=O)N[C@@H](CCCNC(=N)N)C(=O)N[C@@H](CCCNC(=N)N)C(=O)O (H-WELVVLGKLYGRKKRRQRRR-OH)	31.2	63.9	30.9	32.9	Non-Toxic	Non-Toxic	Active	Active	Activity (HepG2 [1]; DDE = dose-dependent effect): Dde; Activity (A549 [3]; DDE = dose-dependent effect): Dde; Activity (HepG2 [5]): Active; Activity (HepG2 [6]): Active; Activity (HepG2 [7]): Active; Activity (HepG2 [8]): Active; Activity (A549 [9]): Active; Activity (A549 [10]): Active; TGI (HepG2 [13]): Dde; Activity (HepG2 [14]): Active; Activity [15]: Non-Toxic; Activity (HepG2 [16]): Active; Activity (HepG2 [17]): Active; Activity (HepG2 [18]): Active
CC[C@H](C)[C@H](NC(=O)[C@H](CCCCN)NC(=O)[C@H](CC(N)=O)NC(=O)[C@H](CCCNC(=N)N)NC(=O)[C@H](Cc1ccccc1)NC(=O)[C@H](CCCCN)NC(=O)[C@H](CCCNC(=N)N)NC(=O)[C@H](CC(C)C)NC(=O)[C@H](CCCNC(=N)N)NC(=O)[C@H](CCCCNC(=O)[C@H](CCCCN)NC(=O)[C@H](CCC(=O)O)NC(=O)[C@H](CCCCN)NC(=O)[C@@H](NC(=O)[C@H](CCCCN)NC(=O)[C@H](CC(N)=O)NC(=O)[C@H](CCCNC(=N)N)NC(=O)[C@H](Cc1ccccc1)NC(=O)[C@H](CCCCN)NC(=O)[C@H](CCCNC(=N)N)NC(=O)[C@H](CC(C)C)NC(=O)[C@H](CCCNC(=N)N)NC(=O)[C@H](CCCCN)NC(=O)[C@H](CCCNC(=N)N)NC(=O)[C@H](CC(C)C)NC(=O)CN)[C@@H](C)CC)NC(=O)[C@H](CCCNC(=N)N)NC(=O)[C@H](CC(C)C)NC(=O)CN)C(=O)N[C@@H](CCCCN)C(=O)N[C@@H](CCC(=O)O)C(=O)N[C@@H](CCCCN)C(=O)O (I: H-GLRKRLRKFRNKIKEK / II: H-GLRKRLRKFRNKIKEK-OH; amide I:C-II:4)	34.8	70.7	56.2	93.6	Non-Toxic	Non-Toxic	Active	Active	Activity (HepG2 [19]): Active; Activity (A549 [20]): Active
